One data set relates to Candida albicans. Description: Effect of antifungal compounds on fungal cells with Alamar Blue (fluorimetric metabolic oxidation-reduction indicator dye assay). It is filed as cell-based. The note with it: for characteristic pattern or "fingerprint": increased metabolic oxidation-reduction activity (Alamar Blue fluorescence) relative to untreated control cells: Candida albicans 1x10^7 cells/mL, test compound two-fold dilutions from 64 μg/mL, 37° C., readings 0-60 min, best seen at 15 min (FIG. 2); for characteristic "fingerprint" with metabolic oxidation-reduction indicator dye (statement on negative controls): for fungal cells, summary statement. An excerpt:
Alamar Blue™ is an indicator dye formulated to measure quantitatively the proliferation of a variety of human or animal cells, bacteria, or fungi. It consists of an oxidation-reduction (REDOX) indicator that yields colorimetric and fluorimetric changes in response to metabolic activity (electron transport activity).
The relative effect of two BPI-derived peptides, XMP.391 (SEQ ID NO: 4) and XMP.445 (SEQ ID NO: 6), and the antifungal compound amphotericin B on fungal cells with the metabolic oxidation-reduction indicator dye Alamar Blue™ [AccuMed Int'l, Westlake, Ohio] was assessed as follows.
Candida albicans were grown in 75 mL Sabouraud's dextrose broth (SDB) for 5 hours at 30° C. Cells were pelleted by centrifiguation for 5 minutes in a Sorvall RT6000B centrifuge at 3,000 rpm (1500×g) and resuspended in 15 mL of fresh SDB. A 1:10 dilution of this suspension was used for an OD570 nm detennination. One OD unit is equivalent to 1×10^7 CFU/mL. Cells were adjusted to a concentration of 2×10^7 CFU/mL.
Test compounds XMP.391, XMP.445 and Amphotericin B (AMB) were two-fold serially diluted in SDB from a concentration of 128 μg/mL in a 96-well plate. This was done in triplicate with each well containing a volume of 100 μL. An equal volume of the yeast suspension was added to each well.
Alamar Blue™ was added at 20 μL per well and the initial (t=0) fluorescence readings were performed in a Molecular Devices SpectraMax Gemini plate reader. The excitation wavelength was 544 nm and the emission wavelength was measured at 590 nm. The plate was incubated at 37° C. and additional readings at 15, 30, 45 and 60 minutes were performed. Metabolic oxidation-reduction activity is detected by an increase in fluorescence emission.
A general note: Alamar Blue is a resazurin reagent that responds to reducing activity.

In the next data set the test system is bacterial growth. The note with it: background statement on narrow therapeutic window; cited from earlier work.
For data set [1] the following is noted: background statement on narrow therapeutic window; cited from earlier work.
Data set [2] concerns E. coli (ATCC strain 8739). The data set is described as follows: Effect of antibacterial compounds on bacteria with Alamar Blue (colorimetric OD595 assay). It is filed as cell-based. The note with it: for bacteria; summary statement.
Procedure: E. coli (ATCC strain 8739) was incubated at 37° C. in 5 mL cation-adjusted Mueller Hinton Broth (CAMHB) for 3 hours to attain log phase growth. The bacteria were pelleted in a Sorvall RT6000B centrifuge for 5 minutes at 3,000 rpm (1.500×g ) and resuspended in 5 mL of fresh CAMHB. A 1:10 dilution was performed for an OD570 nm determination. One OD unit equals 1.25×10^9 CFU/mL. The bacterial suspension was adjusted to 1×10^8 CFU/mL.
This was done in triplicate with each well containing a volume of 100 μL. An equal volume of the bacterial suspension was added to each well. […] Alamar Blue™ was added at 20 μL per well. The “Blank” contained media and Alamar Blue™ only, without cells.
OD595 nm readings were performed in a Molecular Devices plate reader. This required that samples be centrifuged to pellet bacteria and related debris which would contribute to the OD595 nm reading. 150 μL were removed from the wells at various timepoints, centrifuged (2 minutes, 2,000 rpm) and 50 μL of supernatant was carefully transferred to a fresh 96-well plate for the reading. Timepoints were read at 0, 30, 60, 90 and 120 minutes. Metabolic oxidation-reduction activity is detected by an increase in OD in this colorimetric assay.

The values that follow come from patent US6436660B1, “Identification of novel antimicrobial agents using metabolic oxidation-reduction indicator dyes” (XOMA Technology Ltd., priority 1999, dated 2002).

With `C[C@@H]1[C@H](O)[C@@H](C)/C=C/C=C/C=C/C=C/C=C/C=C/C=C/[C@H](O[C@@H]2O[C@H](C)[C@@H](O)[C@H](N)[C@@H]2O)C[C@@H]2O[C@](O)(C[C@@H](O)C[C@@H](O)[C@H](O)CC[C@@H](O)C[C@@H](O)CC(=O)O[C@H]1C)C[C@H](O)[C@H]2C(=O)O` [amphotericin B], in the data set on Candida albicans, the “characteristic pattern or "fingerprint": increased metabolic oxidation-reduction activity (Alamar Blue fluorescence) relative to untreated control cells” value is “did not show the “fingerprint.”” and the “characteristic "fingerprint" with metabolic oxidation-reduction indicator dye (statement on negative controls)” value is recorded as “do not exhibit the characteristic “fingerprint,””.

Take `OC(Cn1cncn1)(Cn1cncn1)c1ccc(F)cc1F` [fluconazole]: the “characteristic "fingerprint" with metabolic oxidation-reduction indicator dye (statement on negative controls)” value in the data set on Candida albicans was “do not exhibit the characteristic “fingerprint,””.

Consider “XMP.391: BPI-derived peptide, domain III-derived, SEQ ID NO: 4; structure described in Table 1 of U.S. Pat. No. 5,858,974 (KVGWLIQLFHKK)”, for which, in the data set with Candida albicans, the “characteristic pattern or "fingerprint": increased metabolic oxidation-reduction activity (Alamar Blue fluorescence) relative to untreated control cells” value was “known to produce this characteristic pattern”.

Turning to antimycin, in the data set on Candida albicans, the “characteristic "fingerprint" with metabolic oxidation-reduction indicator dye (statement on negative controls)” value is listed as “do not exhibit the characteristic “fingerprint,””.

For the molecule gentamicin, the “concentration required to produce a therapeutic effect” value in the data set on bacterial growth is 8 µg/mL. Further, the “concentration that produces a toxic effect” value in data set [1] was 12000 ng/mL.

In the case of polymyxin, the “characteristic "fingerprint" with metabolic oxidation-reduction indicator dye (statement on negative controls)” value in data set [2] is “do not exhibit the characteristic “fingerprint,””.
